The values that follow come from ChEMBL document CHEMBL3301361, “Experimental in vitro DMPK and physicochemical data on a set of publicly disclosed compounds”.

Series [1] is described as follows: in vitro. To be noted: hepatocytes.
The conditions of series [2]: dog, plasma, 5 h.
Series [3] can be described thus: in vitro. To be noted: human, liver microsomes. On the technique in general: Liver microsomes are a subcellular fraction often used to study metabolism.

As for `CCOc1ccc(-c2ccc(Cn3c(CC(C)(C)C(=O)O)c(SC(C)(C)C)c4cc(OCc5ccc(C)cn5)ccc43)cc2)cn1` [FIBOFLAPON], in the series “in vitro [1]”, the intrinsic clearance (hepatocyte CLint) – broadly, the capacity of the preparation to metabolise the compound, expressed as a volume cleared per time – came out at 6.92 µL/min/1e6 cells. This molecule also returned a PPB in series [2] of 99.92%. Moreover, the microsomal CLint (in general, a measure of how fast metabolising enzymes remove a compound, apart from limits set by blood flow) in the series “in vitro [3]” amounted to 9.77 µL/min/mg.
